The text below walks through data of patent US20030022158A1, “Peptides from the TT virus sequence and monospecific antibodies binding to the TT virus” (priority 1999, published 2003).

For the test, the system named is human IgG antibodies in human serum samples. Kind of test: EIA of human antibody reactivities to overlapping synthetic peptides of TTV ORF1 and ORF2 (Tables 2 and 3). It is filed as binding. Particulars: for optical density (OD) at 405 nm: serum diluted 1:100, OD over 0.500 considered positive; for optical density (OD) at 405 nm, EIA reactivity of human serum sample 1: serum sample 1, negative for TTV DNA by PCR; for optical density (OD) at 405 nm, EIA reactivity of human serum sample 1 / optical density (OD) at 405 nm, EIA reactivity of human serum sample 2 / optical density (OD) at 405 nm, EIA reactivity of human serum sample 3 / optical density (OD) at 405 nm, EIA reactivity of human serum sample 4 / optical density (OD) at 405 nm, EIA reactivity of human serum sample 5 / optical density (OD) at 405 nm, EIA reactivity of human serum sample 6 / optical density (OD) at 405 nm, EIA reactivity of human serum sample 7 / optical density (OD) at 405 nm, EIA reactivity of human serum sample 9 / optical density (OD) at 405 nm, EIA reactivity of human serum sample 11 / optical density (OD) at 405 nm, EIA reactivity of human serum sample 18 / optical density (OD) at 405 nm, EIA reactivity of human serum sample 36 / optical density (OD) at 405 nm, EIA reactivity of human serum sample 48 / optical density (OD) at 405 nm, EIA reactivity of human serum sample 98 / optical density (OD) at 405 nm, EIA reactivity of human serum sample 110 / optical density (OD) at 405 nm, EIA reactivity of human serum sample 155 / optical density (OD) at 405 nm, EIA reactivity of human serum sample 157: serum 1:100, peptide coated 10 μg/ml, OD over 0.500 positive; for optical density (OD) at 405 nm, EIA reactivity of human serum sample 2: serum sample 2, negative for TTV DNA by PCR; for optical density (OD) at 405 nm, EIA reactivity of human serum sample 3: serum sample 3, negative for TTV DNA by PCR; for optical density (OD) at 405 nm, EIA reactivity of human serum sample 4: serum sample 4, negative for TTV DNA by PCR; for optical density (OD) at 405 nm, EIA reactivity of human serum sample 5: serum sample 5, negative for TTV DNA by PCR; for optical density (OD) at 405 nm, EIA reactivity of human serum sample 6: serum sample 6, negative for TTV DNA by PCR; for optical density (OD) at 405 nm, EIA reactivity of human serum sample 7: serum sample 7, negative for TTV DNA by PCR; for optical density (OD) at 405 nm, EIA reactivity of human serum sample 9: serum sample 9, positive for TTV DNA by PCR; for optical density (OD) at 405 nm, EIA reactivity of human serum sample 11: serum sample 11, negative for TTV DNA by PCR; for optical density (OD) at 405 nm, EIA reactivity of human serum sample 18: serum sample 18, positive for TTV DNA by PCR; for optical density (OD) at 405 nm, EIA reactivity of human serum sample 36: serum sample 36, positive for TTV DNA by PCR; for optical density (OD) at 405 nm, EIA reactivity of human serum sample 48: serum sample 48, positive for TTV DNA by PCR; for optical density (OD) at 405 nm, EIA reactivity of human serum sample 98: serum sample 98, positive for TTV DNA by PCR; for optical density (OD) at 405 nm, EIA reactivity of human serum sample 110: serum sample 110, positive for TTV DNA by PCR; for optical density (OD) at 405 nm, EIA reactivity of human serum sample 155: serum sample 155, positive for TTV DNA by PCR; for optical density (OD) at 405 nm, EIA reactivity of human serum sample 157: serum sample 157, positive for TTV DNA by PCR; for human reactivity to peptide (reactive peptides within ORF1): tested human sera. The text has this:
Overlapping peptides (18 amino acids in length containing an 8 amino acid overlap) corresponding to regions of the ORFI and ORF2 of TTV (TABLE 1; Genebank accession no AB008394) were produced by a multiple peptide synthesizer (Syro, Syntex, Germany) using standard Fmoc chemistry (Sallberg et al., Immunology Letters, 30:59 68 (1991), herein expressly incorporated by reference in its entirety).
The EIAs used to identify which peptides interacted with human sera followed protocols known in the art. (See Zhang et al., J Gen Virol, 78:2735-2746 (1997), herein expressly incorporated by reference in its entirety). Briefly, microplates (Nunc, Denmark) were coated for 48 hours with synthetic peptides at a concentration of 10 μg/ml in 0.05M sodium carbonate buffer pH 9.6. After blocking for 2 hours at room temperature with phosphate buffered saline containing 1% bovine serum albumin, 2% goat serum and 0.05% Tween 20 (dilution buffer) the plates were incubated with human sera diluted 1:100 in dilution buffer. Bound human IgG was detected by incubation with anti-human IgG antibodies conjugated to alkaline phosphatase (Sigma Chemicals, St. Louis, Mo.). The plates were developed by the addition of […] (Sigma) and the optical densities were determined at 405 nm.

Where [1] appears, read: human serum sample 1, negative for TTV DNA by PCR.
The mark [2] stands for this setting: human serum sample 2, negative for TTV DNA by PCR.
Where [3] appears, read: human serum sample 3, negative for TTV DNA by PCR.
The mark [4] stands for this setting: human serum sample 4, negative for TTV DNA by PCR.
[5] abbreviates: human serum sample 5, negative for TTV DNA by PCR.
The mark [6] stands for this setting: human serum sample 6, negative for TTV DNA by PCR.
The mark [7] stands for this setting: human serum sample 7, negative for TTV DNA by PCR.
Where [8] appears, read: human serum sample 9, positive for TTV DNA by PCR.
The mark [9] stands for this setting: human serum sample 11, negative for TTV DNA by PCR.
The mark [10] stands for this setting: human serum sample 18, positive for TTV DNA by PCR.
[11] abbreviates: human serum sample 36, positive for TTV DNA by PCR.
Setting [12] is: human serum sample 48, positive for TTV DNA by PCR.
The mark [13] stands for this setting: human serum sample 98, positive for TTV DNA by PCR.
Where [14] appears, read: human serum sample 110, positive for TTV DNA by PCR.
Where [15] appears, read: human serum sample 155, positive for TTV DNA by PCR.
Where [16] appears, read: human serum sample 157, positive for TTV DNA by PCR.

In the case of “EDGGAGGDADHGGAAGGP (Peptide Immunogen) [ORF2 peptide 19, overlapping synthetic peptide of TTV ORF2]”, where the note is “ORF2 peptide, EIA”, the “number of tested human sera reactive with the peptide” value is on record as “Two of the tested human sera were reactive”.

As to “KINTMPPFLDTELTAPS (Peptide Immunogen) [compound 18, overlapping synthetic peptide of TTV ORF1]”, the “optical density (OD) at 405 nm, EIA reactivity of human serum sample 1” value was found to be 0.00 OD; the “optical density (OD) at 405 nm, EIA reactivity of human serum sample 2” value is reported as 0.00 OD; the “optical density (OD) at 405 nm, EIA reactivity of human serum sample 3” value is listed as 0.00 OD; the “optical density (OD) at 405 nm, EIA reactivity of human serum sample 4” value came to 0.00 OD. The “optical density (OD) at 405 nm, EIA reactivity of human serum sample 5” value is 0.00 OD; the “optical density (OD) at 405 nm, EIA reactivity of human serum sample 6” value is on record as 0.00 OD; the “optical density (OD) at 405 nm, EIA reactivity of human serum sample 7” value stood at 0.00 OD; the “optical density (OD) at 405 nm, EIA reactivity of human serum sample 9” value was determined as 0.00 OD. Moreover, the “optical density (OD) at 405 nm, EIA reactivity of human serum sample 11” value came to 0.00 OD; the “optical density (OD) at 405 nm, EIA reactivity of human serum sample 18” value is reported as 0.00 OD; the “optical density (OD) at 405 nm, EIA reactivity of human serum sample 36” value is 0.00 OD; the “optical density (OD) at 405 nm, EIA reactivity of human serum sample 48” value was 0.00 OD. For the same sequence, the “optical density (OD) at 405 nm, EIA reactivity of human serum sample 98” value came out at 0.00 OD; the “optical density (OD) at 405 nm, EIA reactivity of human serum sample 110” value is listed as 0.00 OD; the “optical density (OD) at 405 nm, EIA reactivity of human serum sample 155” value stood at 0.00 OD; the “optical density (OD) at 405 nm, EIA reactivity of human serum sample 157” value came out at 0.00 OD. For the same sequence, under setting [1], the “optical density (OD) at 405 nm” value is 0.09 OD. Also, the “optical density (OD) at 405 nm” value under setting [2] is on record as 0.09 OD. The “optical density (OD) at 405 nm” value under setting [3] was found to be 0.15 OD. In addition, the “optical density (OD) at 405 nm” value under setting [4] was 0.29 OD. The “optical density (OD) at 405 nm” value under setting [5] is recorded as 0.07 OD. The “optical density (OD) at 405 nm” value under setting [6] turned out to be 0.13 OD. The “optical density (OD) at 405 nm” value under setting [7] is on record as 0.62 OD. For the same sequence, the “optical density (OD) at 405 nm” value under setting [8] came out at 0.08 OD. Further, under setting [9], the “optical density (OD) at 405 nm” value is listed as 0.28 OD. In addition, the “optical density (OD) at 405 nm” value under setting [10] turned out to be 0.07 OD. For the same sequence, the “optical density (OD) at 405 nm” value under setting [11] was 0.13 OD. Further, the “optical density (OD) at 405 nm” value under setting [12] worked out at 0.12 OD. The “optical density (OD) at 405 nm” value under setting [13] is 0.04 OD. Under setting [14], the “optical density (OD) at 405 nm” value was 0.08 OD. For the same sequence, under setting [15], the “optical density (OD) at 405 nm” value came to 0.19 OD. Under setting [16], the “optical density (OD) at 405 nm” value was determined as 0.18 OD. In addition, under “EIA”, the “human reactivity to peptide (reactive peptides within ORF1)” value (“human reactivity to peptide” below) is “Reactive”.

Consider “QKESLLFPPVKLLRRVP (Peptide Immunogen) [compound 69, overlapping synthetic peptide of TTV ORF1]”, for which the “optical density (OD) at 405 nm” value runs as follows: under setting [1], 0.10 OD; under setting [2], 0.15 OD; under setting [3], 0.16 OD; under setting [4], 0.14 OD; under setting [5], 0.12 OD; under setting [6], 0.51 OD. Moreover, the “optical density (OD) at 405 nm” value reads like this: under setting [7], 0.11 OD; under setting [8], 0.09 OD; under setting [9], 0.13 OD; under setting [10], 0.08 OD; under setting [11], 0.08 OD; under setting [12], 0.09 OD. The “optical density (OD) at 405 nm” value was found to be 0.10 OD under setting [13], 0.11 OD under setting [14], 0.15 OD under setting [15] and 0.21 OD under setting [16]. Under “EIA”, the “human reactivity to peptide” value was “Reactive”.

With “VLICGENTVSRNYATHS (Peptide Immunogen) [compound 10, overlapping synthetic peptide of TTV ORF1]”, the “optical density (OD) at 405 nm, EIA reactivity of human serum sample 1” value came out at 0.09 OD; the “optical density (OD) at 405 nm, EIA reactivity of human serum sample 2” value was 0.11 OD; the “optical density (OD) at 405 nm, EIA reactivity of human serum sample 3” value amounted to 0.10 OD; the “optical density (OD) at 405 nm, EIA reactivity of human serum sample 4” value came out at 0.09 OD. The “optical density (OD) at 405 nm, EIA reactivity of human serum sample 5” value is 0.08 OD; the “optical density (OD) at 405 nm, EIA reactivity of human serum sample 6” value is 0.11 OD; the “optical density (OD) at 405 nm, EIA reactivity of human serum sample 7” value is 0.08 OD; the “optical density (OD) at 405 nm, EIA reactivity of human serum sample 9” value is listed as 0.09 OD. Further, the “optical density (OD) at 405 nm, EIA reactivity of human serum sample 11” value is 0.10 OD; the “optical density (OD) at 405 nm, EIA reactivity of human serum sample 18” value came to 0.09 OD; the “optical density (OD) at 405 nm, EIA reactivity of human serum sample 36” value is recorded as 0.07 OD; the “optical density (OD) at 405 nm, EIA reactivity of human serum sample 48” value is given as 0.08 OD. The “optical density (OD) at 405 nm, EIA reactivity of human serum sample 98” value stood at 0.08 OD; the “optical density (OD) at 405 nm, EIA reactivity of human serum sample 110” value is on record as 0.08 OD; the “optical density (OD) at 405 nm, EIA reactivity of human serum sample 155” value came out at 0.11 OD; the “optical density (OD) at 405 nm, EIA reactivity of human serum sample 157” value is 0.13 OD. For the same sequence, the “optical density (OD) at 405 nm” value under setting [1] worked out at 0.09 OD. In addition, the “optical density (OD) at 405 nm” value under setting [2] is given as 0.10 OD. The “optical density (OD) at 405 nm” value under setting [3] was 0.11 OD. Further, the “optical density (OD) at 405 nm” value under setting [4] was found to be 0.11 OD. Besides, the “optical density (OD) at 405 nm” value under setting [5] is listed as 0.11 OD. Further, under setting [6], the “optical density (OD) at 405 nm” value is reported as 0.13 OD. Besides, the “optical density (OD) at 405 nm” value under setting [7] is 1.09 OD. Besides, the “optical density (OD) at 405 nm” value under setting [8] is given as 0.09 OD. Further, the “optical density (OD) at 405 nm” value under setting [9] amounted to 0.12 OD. Moreover, under setting [10], the “optical density (OD) at 405 nm” value came out at 0.07 OD. Under setting [11], the “optical density (OD) at 405 nm” value was found to be 0.07 OD. Further, the “optical density (OD) at 405 nm” value under setting [12] is listed as 0.11 OD. For the same sequence, the “optical density (OD) at 405 nm” value under setting [13] was found to be 0.06 OD. Besides, the “optical density (OD) at 405 nm” value under setting [14] stood at 0.09 OD. Moreover, under setting [15], the “optical density (OD) at 405 nm” value is given as 0.12 OD. The “optical density (OD) at 405 nm” value under setting [16] was found to be 0.12 OD. Also, the “human reactivity to peptide” value (EIA) was “Reactive”.
